# Measured values reported in patent publication US8962637B2, “Bicyclic compounds and their uses as dual c-SRC/JAK inhibitors” (Debiopharm S.A., priority 2010, dated 2015).
# What was measured:
# [1] = target: JAK2 (Homo sapiens (Human), UniProt O60674); assay: TR-FRET JAK2 kinase assay; assay type: biochemical; settings: ATP 10 μM; for inhibition at 0.1 µM: read-out: JAK2 % inhibition at 100 nM, 100 nM; for inhibition at 1 µM: read-out: JAK2 % inhibition at 1 μM
# Method: (§1) Compounds were screened in the TR-FRET assay for JAK2 and c-Src kinase inhibition. Ultra light poly GT (Perkin Elmer) was used as the substrate for JAK2 and c-Src with the ATP concentration of 10 μM and 50 μM, respectively. […] The dose-response curve fitting was done using GraphPad Prism software.
# [2] = target: c-Src (Homo sapiens (Human), UniProt P12931); assay: TR-FRET c-Src kinase assay; assay type: biochemical; settings: ATP 50 μM; for inhibition at 0.1 µM: read-out: c-SRC % inhibition at 100 nM, 100 nM; for inhibition at 1 µM: read-out: c-SRC % inhibition at 1 μM
# Chain of c-Src (P12931 whole entry, looked up): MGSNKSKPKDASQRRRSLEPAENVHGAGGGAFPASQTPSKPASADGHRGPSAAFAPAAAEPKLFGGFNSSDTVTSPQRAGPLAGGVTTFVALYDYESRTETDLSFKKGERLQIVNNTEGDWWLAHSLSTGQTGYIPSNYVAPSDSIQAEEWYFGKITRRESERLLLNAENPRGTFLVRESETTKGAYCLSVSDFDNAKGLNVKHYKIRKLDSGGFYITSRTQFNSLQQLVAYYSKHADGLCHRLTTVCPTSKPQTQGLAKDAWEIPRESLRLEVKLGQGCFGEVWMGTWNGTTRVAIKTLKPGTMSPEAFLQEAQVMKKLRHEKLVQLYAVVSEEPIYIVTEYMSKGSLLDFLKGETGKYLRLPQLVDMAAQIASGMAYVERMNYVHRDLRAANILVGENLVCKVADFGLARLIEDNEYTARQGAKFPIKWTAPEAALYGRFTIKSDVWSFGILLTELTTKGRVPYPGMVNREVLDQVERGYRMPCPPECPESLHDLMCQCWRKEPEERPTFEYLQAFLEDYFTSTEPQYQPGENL
# Method: as §1
# [3] = system: Mda-Mb-231 cells; assay: Cell viability assay (XTT assay), Mda-Mb-231; assay type: cell-based; settings: Homo sapiens, 72 hrs
# Method: (§2) Mda-Mb-231 or A549 cells were seeded onto a 96-well micro plate. Next day compounds were added to cells and incubated for 72 hrs. Compound treatment was done in triplicates. After 72 hrs cell culture media was aspirated from the wells and XTT working solution was added and plates were incubated for 2-5 hrs. The absorbance of the samples was measured with a spectrophotometer at a wavelength of 465 nm. EC50 values were calculated using Graphpad Prism. Tumor cell lines used in the examples of the present invention were procured from ATCC. Description of the cell lines is included in the following table: […]
# [4] = system: A549 cells; assay: Cell viability assay (XTT assay), A549; assay type: cell-based; settings: Homo sapiens, 72 hrs
# Method: as §2, with “Next” for “Mda-Mb-231 or A549 cells were seeded onto a 96-well micro plate. Next”, “The absorbance of the samples was measured with a spectrophotometer at a wavelength of 465 nm.” left out
# [5] = system: A431 cancer cell line; assay: Inhibition of cell growth in A431; assay type: cell-based; settings: Homo sapiens, A-431
# [6] = system: pStat3; assay: In-Cell-Western blot assay for pStat3 (ICW) in A431 cells; assay type: cell-based; settings: Homo sapiens, A-431, 2 hrs, read-out: pSTAT3 inhibition
# Method: A431 cells were seeded onto a 96-well micro plate. After overnight serum starvation cells were incubated with compounds for 2 hrs. Cells were fixed with 4% paraformaldehyde in PBS and then permeabilized with 0.1% Triton X-100 in PBS (PBST). Cells were blocked with 5% BSA in PBST for 2 hrs, followed by overnight incubation with phospho Stat3 antibody. Cells were washed and incubated with europium-labeled anti-rabbit secondary antibody for 2 hrs. After washing enhancement solution was added to the wells. The micro-plate was read on the Victor instrument at the Europium setting. The Hoechst readings were used to normalize for cell number. IC50 values were calculated with the normalized europium values using Graphpad Prism.
# [7] = Volume distribution; settings: in vivo
# From the text: Table 8 provides some volume distribution values of the compounds of the present invention.
# [8] = system: A549 tumor cells; assay: A549 xenograft model; assay type: in vivo; settings: A549 Xenograft model
# Method: Sub-cutaneous (SC) injection of 5×10^6 A549 tumor cells on the left flank of 48 female athymic nude mice. Randomization of mice 14 days after tumor cell injection into 6 groups of 8 mice each with a mean tumor volume of 134±5 mm3.
# Formulation: 20% HPC, 2% ethanol solution in PBS for the compounds No. 45, 117 and 179.
# • Normal saline for Erlotinib® Dosing route: Oral for the compounds No. 45, 117 and 179, and Erlotinib® Dose Volume: 10 mL/Kg body weight Dosing schedule: Once daily for 14 consecutive days (Q1Dx14) Dosage: • Group1. Vehicle control • Group2. Erlotinib®-100 MPK • Group3. Compound No. 45—10 MPK • Group4. Compound No. 45—30 MPK • Group5. Compound No. 45—100 MPK • Group6. Compound No. 117—30 MPK • Group7. Compound No. 117—100 MPK • Group8. Compound No. 179—10 MPK • Group9. […] Plasma collected for drug concentration estimation and whole blood was collected to isolate PBMCs (peripheral blood monocytes) to determine pStat3 inhibition by flow cytometry as PD readout. Tumors were snap frozen in liquid nitrogen and stored at −80° C. to estimate pStat3 by flow cytometry as PD readout EXPT. 2
# SC injection of 5×10^6 A549 tumor cells on the left flank of 24 female athymic nude mice. Randomization of mice 14 days after tumor cell injection into 3 groups of 8 mice each with a mean tumor volume of 75±7 mm3.
# Formulation: 20% HPC, 2% ethanol solution in PBS for the compound No. 45
# • Normal saline for Erlotinib® Dosing route: Oral for compound No. 45 and Erlotinib® Dose Volume: 10 mL/Kg body weight Dosing schedule: Once daily for 14 consecutive days (Q1Dx14) Dosage: • Group1. Vehicle control • Group2. Compound No. 45—150 MPK • Group3. […] Plasma collected for drug concentration estimation and whole blood was collected to isolate PBMCs to determine pStat3 inhibition by flow cytometry as PD readout. Tumors were snap frozen in liquid nitrogen and stored at −80° C. to estimate pStat3 by flow cytometry as PD readout Results: […]
# [9] = system: pStat3; assay: Quantification of pStat3 in PBMCs by flow cytometry; assay type: in vivo, mice; settings: A549 Xenograft model
# Method: Phosphorylation of Stat3 was stimulated by addition of hIL6 (10 ug/mL) for 30 min at 37° C. Blood was fixed with formaldehyde (final 2% v/v) for 10 min at 37° C.
# Buffy coat (PBMCs) was separated by aspirating translucent layer using pipetteman and washed twice with PBS-1×
# Pre chilled PBMC's were permeabilized by adding ice cold Methanol, while vortexing gently (final volume 90% MeOH v/v) and incubated for 30 min on ice.
# Permeabilized PBMCs were washed with PBS once. PBMCs re-suspended to 2×10^6 cells in 200 μL of incubation buffer for 10 min at room temperature (RT). Primary Ab was added (1:100 dilution) and incubated 45 min at RT. Washed as before (twice) and re-suspended in fluorochrome conjugated secondary Ab (1:500 dilution) and incubated at RT in dark for 30 min. Washed and re-suspended in […] PBS.
# (§3) Measured pStat3 using FACS caliber machine (BD). Unstained PBMCs was used for cytometry settings. […] Histograms (cell number V/s FL1-H) were plotted. Percentage of cells that are phosphorylated by IL6 stimulation (M2 population), and inhibition of phosphorylation by inhibitor (decrease in M2 population) are calculated on histogram by marking peaks, M1 and M2.
# [10] = system: pStat3; assay: Quantification of pStat3 in tumors by flow cytometry; assay type: in vivo, mice; settings: A549 Xenograft model
# Method: as §3
# Separate the tumour & 200 mg of tumour was crashed (45 mg per ml) by using IKA 10 at Speed #4 for 10 seconds. Sieve the tumour extract through 100 u, centrifuge at 900 g for 10 min. Re-suspend cells briefly in 0.5-1 ml PBS. Add formaldehyde to a final concentration of 2-4% formaldehyde. Fix for 10 minutes at 37° C. Chill tubes on ice for 1 minute.
# Permeabilize cells by adding ice-cold 100% methanol slowly to pre-chilled cells, while gently vortexing, to a final concentration of 90% methanol. Alternatively, to remove fix prior to permeabilization, pellet cells by centrifugation and re-suspend in 90% methanol. Incubate 30 minutes on ice. Proceed with staining or store cells at −20° C. in 90% methanol. Aliquot 0.5-1×10^6 cells into each assay tube (by volume). Add 2-3 ml Incubation Buffer to each tube and rinse by centrifugation. Repeat. Re-suspend cells in 100 μl Incubation Buffer per assay tube. Analyze by flow cytometry like PBMCs.
# Chain of JAK2 (O60674 whole entry): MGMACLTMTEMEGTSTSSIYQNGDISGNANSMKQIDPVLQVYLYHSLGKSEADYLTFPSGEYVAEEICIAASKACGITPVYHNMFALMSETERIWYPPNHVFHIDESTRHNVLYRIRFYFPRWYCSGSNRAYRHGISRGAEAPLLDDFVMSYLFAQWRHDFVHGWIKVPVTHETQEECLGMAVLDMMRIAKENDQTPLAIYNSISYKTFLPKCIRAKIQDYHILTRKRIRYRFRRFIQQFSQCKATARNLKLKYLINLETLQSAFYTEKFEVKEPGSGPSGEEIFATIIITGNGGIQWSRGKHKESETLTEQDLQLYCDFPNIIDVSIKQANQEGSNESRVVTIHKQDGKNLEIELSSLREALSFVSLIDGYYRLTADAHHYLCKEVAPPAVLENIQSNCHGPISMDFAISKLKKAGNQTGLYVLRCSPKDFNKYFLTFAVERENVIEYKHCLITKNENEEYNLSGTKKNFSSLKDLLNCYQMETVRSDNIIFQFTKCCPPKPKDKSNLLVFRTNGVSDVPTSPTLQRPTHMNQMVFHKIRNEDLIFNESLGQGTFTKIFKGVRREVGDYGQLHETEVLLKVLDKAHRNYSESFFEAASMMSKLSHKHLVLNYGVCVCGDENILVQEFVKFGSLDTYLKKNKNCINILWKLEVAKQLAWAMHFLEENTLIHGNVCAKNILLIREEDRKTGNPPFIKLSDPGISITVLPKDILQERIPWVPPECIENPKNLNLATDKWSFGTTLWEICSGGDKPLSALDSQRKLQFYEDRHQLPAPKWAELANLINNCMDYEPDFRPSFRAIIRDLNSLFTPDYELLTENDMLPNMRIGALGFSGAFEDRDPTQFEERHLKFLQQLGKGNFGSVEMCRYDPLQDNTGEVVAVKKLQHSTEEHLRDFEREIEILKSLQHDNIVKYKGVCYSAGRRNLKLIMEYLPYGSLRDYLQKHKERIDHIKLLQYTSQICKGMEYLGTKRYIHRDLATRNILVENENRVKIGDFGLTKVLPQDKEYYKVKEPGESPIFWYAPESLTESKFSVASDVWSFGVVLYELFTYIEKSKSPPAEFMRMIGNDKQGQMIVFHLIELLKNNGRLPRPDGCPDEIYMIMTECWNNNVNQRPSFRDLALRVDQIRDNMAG
Compound,EC50 [3] [nM],EC50 [4] [nM],EC50 [5] [nM],IC50 [6] [nM],inhibition at 0.1 µM [2] [%],inhibition at 1 µM [2] [%],further results
"Cc1ccc(NC(=O)CCC(F)(F)F)cc1N1CCc2nc(Nc3ccc(N4CCN(C)CC4)cc3)ncc2C1 [Compound 131, 4,4,4-Trifluoro-N-(4-methyl-3-{2-[4-(4-methyl-piperazin-1-yl)-phenylamino]-7,8-dihydro-5H-pyrido[4,3-d]pyrimidin-6-yl}-phenyl)-butyramide]",880,–,–,–,74,90,Vd [7]: 7.14 L/kg
"Cc1ccc(NC(=O)c2cccc(C(F)(F)F)c2)cc1N1CCc2nc(Nc3ccc(C(=O)N4CCN(C)CC4)nc3)ncc2C1 [Compound 132, N-(4-Methyl-3-{2-[6-(4-methyl-piperazine-1-carbonyl)-pyridin-3-ylamino]-7,8-dihydro-5H-pyrido[4,3-d]pyrimidin-6-yl}-phenyl)-3-trifluoromethyl-benzamide]",41,47,–,480,–,–,IC50 [1]: 3 nM; IC50 [2]: 5 nM
"Cc1ccc(NC(=O)c2cccc(C(F)(F)F)c2)cc1N1CCc2nc(Nc3cccc(CN4CCN(C)CC4)c3)ncc2C1 [Compound 137, N-(4-Methyl-3-{2-[3-(4-methyl-piperazin-1-ylmethyl)-phenylamino]-7,8-dihydro-5H-pyrido[4,3-d]pyrimidin-6-yl]-phenyl)-3-trifluoromethyl-benzamide]",74,426,670,670,–,–,IC50 [2]: 7 nM
"O=C(COc1ccc(Nc2ncc3c(n2)CCN(c2cc(NC(=O)c4cccc(C(F)(F)F)c4)ccc2Cl)C3=O)cc1)NC1CC1 [Compound 185, N-(4-Chloro-3-[2-(4-(cyclopropylcarbamoylmethoxy)phenylamino)-5-oxo-7,8-dihydro-5H-pyrido[4,3-d]pyrimidin-6-yl]-phenyl}-3-trifluoromethyl-benzamide]",–,–,–,–,–,–,Vd [7]: 0.583 L/kg
"C#Cc1cccc(Nc2ncnc3cc(OCCOC)c(OCCOC)cc23)c1 [Erlotinib, reference compound]",–,–,–,–,–,–,% TGI (Tumor Growth Inhibition) ([8]; 100 MPK): 59.55%; PBMCs % pStat3 inhibition ([9]; 100 MPK): 44.43%; Tumors % pStat3 inhibition ([10]; 100 MPK): 28.14%
"CCC1=C[C@@H]2CN(C1)Cc1c([nH]c3ccccc13)[C@@](C(=O)OC)(c1cc3c(cc1OC)N(C)[C@H]1[C@@](O)(C(=O)OC)[C@H](OC(C)=O)[C@]4(CC)C=CCN5CC[C@]31[C@@H]54)C2 [Vinorelbine, reference compound]",–,–,–,–,–,–,% TGI (Tumor Growth Inhibition) ([8]; 8 MPK): 51.89%; PBMCs % pStat3 inhibition ([9]; 8 MPK): 28.8%; Tumors % pStat3 inhibition ([10]; 8 MPK): 25.2%

# The next lines start with results.
EC50 [3] [nM],EC50 [4] [nM],EC50 [5] [nM],IC50 [6] [nM],inhibition at 0.1 µM [2] [%],inhibition at 1 µM [2] [%],Compound,further results
3600,3400,1450,450,–,–,"Cc1ccc(NC(=O)c2cccc(C(F)(F)F)c2)cc1N1CCc2nc(Nc3ccc(OCCN4CCCC4)cc3)ncc2C1=O [Compound 7, N-(4-Methyl-3-{5-oxo-2-[4-(2-pyrrolidin-1-yl-ethoxy)-phenylamino]-7,8-dihydro-5H-pyrido[4,3-d]pyrimidin-6-yl}-phenyl)-3-trifluoromethyl-benzamide]",IC50 [1]: 83 nM; IC50 [2]: 16 nM
530,78,570,580,–,–,Cc1ccc(NC(=O)c2cccc(C(C)(C)C)c2)cc1N1CCc2nc(Nc3ccc(N4CCN(C)CC4)cc3)ncc2C1=O [Compound 86],–
1620,1480,1070,140,66,87,"Cc1ccc(NC(=O)c2cccc(C(F)(F)F)c2)cc1N1CCc2nc(Nc3ccc(OCCCN4CCN(C)CC4)cc3)ncc2C1=O [Compound 180, N-[4-Methyl-3-(2-{4-[3-(4-methyl-piperazin-1-yl)-propoxy]-phenylamino}-5-oxo-7,8-dihydro-5H-pyrido[4,3-d]pyrimidin-6-yl)-phenyl]-3-trifluoromethyl-benzamide]",inhibition at 0.1 µM [1]: 67%; inhibition at 1 µM [1]: 91%
3340,2540,1300,–,53,77,"O=C(Nc1ccc(Cl)c(N2CCc3nc(Nc4ccc(OCCN5CCCC5)cc4)ncc3C2=O)c1)c1cccc(C(F)(F)F)c1 [Compound 181, N-(4-Chloro-3-{5-oxo-2-[4-(2-pyrrolidin-1-yl-ethoxy)-phenylamino]-7,8-dihydro-5H-pyrido[4,3-d]pyrimidin-6-yl}-phenyl)-3-trifluoromethyl-benzamide]",inhibition at 0.1 µM [1]: 85%; inhibition at 1 µM [1]: 93%
2760,1080,5070,–,51,80,"Cc1ccc(NC(=O)c2cccc(C(F)(F)F)c2)cc1N1CCc2nc(Nc3ccc(OCCCN4CCOCC4)cc3)ncc2C1=O [Compound 182, N-(4-Methyl-3-{2-[4-(3-morpholin-4-yl-propoxy)-phenylamino]-5-oxo-7,8-dihydro-5H-pyrido[4,3-d]pyrimidin-6-yl}-phenyl)-3-trifluoromethyl-benzamide]",inhibition at 0.1 µM [1]: 55%; inhibition at 1 µM [1]: 85%
680,1200,–,> 10000,–,–,"Cc1cnc(Nc2ccc(OCCN3CCCC3)cc2)nc1Nc1cccc(S(=O)(=O)NC(C)(C)C)c1 [TG101348, reference compound]",–
